ChEMBL document CHEMBL1697723, “A predictive ligand-based Bayesian model for human drug-induced liver injury” (Drug Metab Dispos, 2010)
Residues, ends and D or L forms follow the SMILES beside them.

What follows are compounds tested on Hepatotoxicity (assay: Human drug-induced liver injury (DILI) modelling dataset from Ekins et al). Conditions: not given.

Structure (SMILES)	Hepatotoxicity
CC[C@H]1OC(=O)[C@H](C)[C@@H](O[C@H]2C[C@@](C)(OC)[C@@H](O)[C@H](C)O2)[C@H](C)[C@@H](O[C@@H]2O[C@H](C)C[C@H](N(C)C)[C@H]2O)[C@](C)(O)C[C@@H](C)CN(C)[C@H](C)[C@@H](O)[C@]1(C)O [AZITHROMYCIN]	DILI negative (test set)
CC1(C)S[C@@H]2[C@H](NC(=O)[C@H](NC(=O)N3CCNC3=O)c3ccccc3)C(=O)N2[C@H]1C(=O)[O-].[Na+] [AZLOCILLIN SODIUM]	DILI negative (test set)
C[C@H]1[C@H](NC(=O)/C(=N\OC(C)(C)C(=O)O)c2csc(N)n2)C(=O)N1S(=O)(=O)O [AZTREONAM]	DILI negative (training set)
CC[C@H](C)[C@H](N)C1=N[C@H](C(=O)N[C@@H](CC(C)C)C(=O)N[C@H](CCC(=O)O)C(=O)N[C@H](C(=O)N[C@H]2CCCCNC(=O)[C@H](CC(N)=O)NC(=O)[C@@H](CC(=O)O)NC(=O)[C@H](Cc3cnc[nH]3)NC(=O)[C@@H](Cc3ccccc3)NC(=O)[C@H]([C@@H](C)CC)NC(=O)[C@@H](CCCN)NC2=O)[C@@H](C)CC)CS1 [BACITRACIN] (HELM PEPTIDE1{[CC[C@H](C)[C@H](N)C1=N[C@H](C(=O)[*:2])CS1].L.[dE].I.K.[NCCC[C@@H](N[*:1])C(=O)[*:2]].I.[dF].H.[dD].N}$PEPTIDE1,PEPTIDE1,5:R3-11:R2$$$V2.0)	DILI negative (training set)
CN(C)C(=O)Oc1cc(OC(=O)N(C)C)cc(C(O)CNC(C)(C)C)c1 (stereo unspecified) [BAMBUTEROL]	DILI negative (training set)
CCC(=O)OCC(=O)[C@@]1(OC(=O)CC)[C@@H](C)C[C@H]2[C@@H]3CCC4=CC(=O)C=C[C@]4(C)[C@@]3(Cl)[C@@H](O)C[C@@]21C [BECLOMETHASONE DIPROPIONATE]	DILI negative (training set)
CCOC(=O)[C@H](CCc1ccccc1)N[C@H]1CCc2ccccc2N(CC(=O)O)C1=O [BENAZEPRIL]	DILI negative (training set)
CC(C(=O)O)c1ccc2oc(-c3ccc(Cl)cc3)nc2c1 (stereo unspecified) [BENOXAPROFEN]	DILI positive (test set)
CCc1oc2ccccc2c1C(=O)c1cc(Br)c(O)c(Br)c1 [BENZBROMARONE]	DILI positive (training set)
CC(C)COCC(CN(Cc1ccccc1)c1ccccc1)N1CCCC1.Cl.O (stereo unspecified) [BEPRIDIL HYDROCHLORIDE]	DILI positive (training set)
CNCCc1ccccn1.Cl.Cl [BETAHISTINE HYDROCHLORIDE]	DILI positive (training set)
C[N+](C)(C)CC(=O)O.[Cl-] [BETAINE HYDROCHLORIDE]	DILI negative (test set)
C[C@H]1C[C@H]2[C@@H]3CCC4=CC(=O)C=C[C@]4(C)[C@@]3(F)[C@@H](O)C[C@]2(C)[C@@]1(O)C(=O)CO [BETAMETHASONE]	DILI negative (training set)
CC(C)(Oc1ccc(CCNC(=O)c2ccc(Cl)cc2)cc1)C(=O)O [BEZAFIBRATE]	DILI negative (training set)
CC(O)(CS(=O)(=O)c1ccc(F)cc1)C(=O)Nc1ccc(C#N)c(C(F)(F)F)c1 (stereo unspecified) [BICALUTAMIDE]	DILI positive (training set)
O=C(O)CCCC[C@@H]1SC[C@@H]2NC(=O)N[C@@H]21 [BIOTIN]	DILI negative (training set)
CCCC[C@@H](CC)COC(=O)c1ccccc1C(=O)OC[C@@H](CC)CCCC [BIS(2-ETHYLHEXYL)PHTHALATE]	DILI positive (test set)
Oc1c(Cl)cc(Cl)cc1Sc1cc(Cl)cc(Cl)c1O [BITHIONOL]	DILI positive (test set)
COc1ccccc1Oc1c(NS(=O)(=O)c2ccc(C(C)(C)C)cc2)nc(-c2ncccn2)nc1OCCO [BOSENTAN]	DILI positive (test set)
Nc1c(CC(=O)O)cccc1C(=O)c1ccc(Br)cc1 [BROMFENAC]	DILI positive (test set)

Structure (SMILES)	Hepatotoxicity
Brc1ccccc1 [BROMOBENZENE]	DILI positive (test set)
NCCBr [BROMOETHANAMINE]	DILI positive (test set)
CN(C)CCC(c1ccc(Br)cc1)c1ccccn1.O=C(O)/C=C\C(=O)O (stereo unspecified) [BROMPHENIRAMINE MALEATE]	DILI negative (training set)
CCCCNc1cc(C(=O)O)cc(S(N)(=O)=O)c1Oc1ccccc1 [BUMETANIDE]	DILI positive (training set)
CCCCN1CCCCC1C(=O)Nc1c(C)cccc1C (stereo unspecified) [BUPIVACAINE]	DILI negative (training set)
CC(NC(C)(C)C)C(=O)c1cccc(Cl)c1.Cl (stereo unspecified) [BUPROPION HYDROCHLORIDE]	DILI negative (training set)
O=C1CC2(CCCC2)CC(=O)N1CCCCN1CCN(c2ncccn2)CC1 [BUSPIRONE]	DILI negative (test set)
CS(=O)(=O)OCCCCOS(C)(=O)=O [BUSULFAN]	DILI positive (training set)
Clc1ccc(CCC(Cn2ccnc2)Sc2c(Cl)cccc2Cl)cc1.O=[N+]([O-])O (stereo unspecified) [BUTOCONAZOLE NITRATE]	DILI negative (test set)
Cc1cc(C(C)(C)C)c(O)c(C(C)(C)C)c1 [BUTYLATED HYDROXYTOLUENE]	DILI positive (test set)
Cn1c(=O)c2c(ncn2C)n(C)c1=O [CAFFEINE]	DILI negative (test set)
C=C1CC[C@H](O)C/C1=C/C=C1\CCC[C@]2(C)[C@@H]([C@H](C)CCCC(C)(C)O)CC[C@@H]12.O [CALCIFEDIOL]	DILI positive (test set)
CC(C)(CO)[C@@H](O)C(=O)NCCC(=O)[O-].CC(C)(CO)[C@@H](O)C(=O)NCCC(=O)[O-].[Ca+2] [CALCIUM PANTOTHENATE]	DILI negative (training set)
COc1cc(CNC(=O)CCCC/C=C/C(C)C)ccc1O [CAPSAICIN]	DILI negative (test set)
C[C@H](CS)C(=O)N1CCC[C@H]1C(=O)O [CAPTOPRIL]	DILI positive (training set)
NC(=O)N1c2ccccc2C=Cc2ccccc21 [CARBAMAZEPINE]	DILI positive (test set)
COC(=O)Nc1nc2ccccc2[nH]1 [CARBENDAZIM]	DILI positive (training set)
CC1(C)[C@@H](OC(=O)CCC(=O)[O-])CC[C@]2(C)[C@H]3C(=O)C=C4[C@@H]5C[C@@](C)(C(=O)[O-])CC[C@]5(C)CC[C@@]4(C)[C@]3(C)CC[C@@H]12.[Na+].[Na+] [CARBENOXOLONE SODIUM]	DILI negative (training set)
C[C@@](Cc1ccc(O)c(O)c1)(NN)C(=O)O.O [CARBIDOPA]	DILI negative (training set)
ClC(Cl)(Cl)Cl [CARBON TETRACHLORIDE]	DILI positive (test set)

Structure (SMILES)	Hepatotoxicity
CC1=C(C(=O)O)N2C(=O)[C@@H](NC(=O)[C@H](N)c3ccc(O)cc3)[C@H]2SC1 [CEFADROXIL]	DILI positive (test set)
Cn1nnnc1SCC1=C(C(=O)[O-])N2C(=O)[C@@H](NC(=O)[C@H](O)c3ccccc3)[C@H]2SC1.[Na+] [CEFAMANDOLE SODIUM]	DILI positive (test set)
CCN1CCN(C(=O)N[C@@H](C(=O)N[C@@H]2C(=O)N3C(C(=O)O)=C(CSc4nnnn4C)CS[C@H]23)c2ccc(O)cc2)C(=O)C1=O.O.O [CEFOPERAZONE DIHYDRATE]	DILI negative (training set)
CO[C@@]1(NC(=O)C2SC(=C(C(N)=O)C(=O)O)S2)C(=O)N2C(C(=O)O)=C(CSc3nnnn3C)CS[C@@H]21 (stereo partly specified) [CEFOTETAN]	DILI negative (test set)
CN(C)CCn1nnnc1SCC1=C(C(=O)O)N2C(=O)[C@@H](NC(=O)Cc3csc(N)n3)[C@H]2SC1.Cl.Cl [CEFOTIAM HYDROCHLORIDE]	DILI positive (test set)
CO[C@@]1(NC(=O)Cc2cccs2)C(=O)N2C(C(=O)O)=C(COC(N)=O)CS[C@@H]21 [CEFOXITIN]	DILI positive (test set)
CC(C)(O/N=C(\C(=O)N[C@@H]1C(=O)N2C(C(=O)[O-])=C(C[n+]3ccccc3)CS[C@H]12)c1csc(N)n1)C(=O)O [CEFTAZIDIME]	DILI negative (test set)
O=C(Cc1cccs1)N[C@@H]1C(=O)N2C(C(=O)[O-])=C(C[n+]3ccccc3)CS[C@H]12 [CEPHALORIDINE]	DILI positive (test set)
CC(=O)OCC1=C(C(=O)[O-])N2C(=O)[C@@H](NC(=O)Cc3cccs3)[C@H]2SC1.[Na+] [CEPHALOTHIN SODIUM]	DILI positive (test set)
CC(=O)OCC1=C(C(=O)[O-])N2C(=O)[C@@H](NC(=O)CSc3ccncc3)[C@H]2SC1.[Na+] [CEPHAPIRIN SODIUM]	DILI negative (test set)
CC1=C(C(=O)O)N2C(=O)[C@@H](NC(=O)[C@H](N)C3=CCC=CC3)[C@H]2SC1 [CEPHRADINE]	DILI negative (test set)
COCc1c(C(C)C)nc(C(C)C)c(/C=C/[C@@H](O)C[C@@H](O)CC(=O)O)c1-c1ccc(F)cc1 [CERIVASTATIN]	DILI positive (test set)
C[C@H](CCC(=O)O)[C@H]1CC[C@H]2[C@@H]3[C@H](O)C[C@@H]4C[C@H](O)CC[C@]4(C)[C@H]3CC[C@]12C [CHENODIOL]	DILI positive (training set)
CCCCCCCCCCCCCCCC(=O)OC[C@@H](NC(=O)C(Cl)Cl)[C@H](O)c1ccc([N+](=O)[O-])cc1 [CHLORAMPHENICOL PALMITATE]	DILI positive (training set)
CCN(CC)CCCC(C)Nc1ccnc2cc(Cl)ccc12.O=P(O)(O)O.O=P(O)(O)O (stereo unspecified) [CHLOROQUINE PHOSPHATE]	DILI negative (test set)
CN(C)CCC(c1ccc(Cl)cc1)c1ccccn1.O=C(O)/C=C\C(=O)O (stereo unspecified) [CHLORPHENIRAMINE MALEATE]	DILI positive (training set)
CN(C)CCCN1c2ccccc2Sc2ccc(Cl)cc21 [CHLORPROMAZINE]	DILI positive (training set)
CCCNC(=O)NS(=O)(=O)c1ccc(Cl)cc1 [CHLORPROPAMIDE]	DILI positive (test set)

Same assay, conditions: Liver

Structure (SMILES)	Hepatotoxicity
Cl[C@H]1[C@H](Cl)[C@@H](Cl)[C@H](Cl)[C@@H](Cl)[C@@H]1Cl [BETA-HEXACHLOROCYCLOHEXANE]	DILI positive (training set)
Cc1ccc(-c2cc(C(F)(F)F)nn2-c2ccc(S(N)(=O)=O)cc2)cc1 [CELECOXIB]	DILI positive (test set)
ClC(Cl)Cl [CHLOROFORM]	DILI positive (test set)
